Assay results taken from ChEMBL document CHEMBL3763125, “Discovery of novel phenoxazinone derivatives as DKK1/LRP6 interaction inhibitors: Synthesis, biological evaluation and structure-activity relationships” (Bioorg Med Chem, 2016).
Calls of active or inactive are those of the source. No cut-off for these calls is given here.

Key:
Format in all cases: cell-based
[1] = target: T1, Low-density lipoprotein receptor-related protein 6 (Homo sapiens, UniProt O75581); assay: Binding affinity to LRP6 in human SH-SY5Y cells assessed as inhibition of DKK1/LRP6 interaction-mediated tau phosphorylation at serine 396 at 10 uM incubated for 1 hr using compound pre-treated DKK1 conditioned media by Western blot analysis
[2] = target: T1, Low-density lipoprotein receptor-related protein 6; assay: Binding affinity to human LRP6 expressed in HEK293 cells assessed as inhibition of DKK1/LRP6 interaction using compound pre-treated DKK1 conditioned media after 2 hrs by fluorescence microscopic analysis
SH-SY5Y = assay: Cytotoxicity against human SH-SY5Y cells at 10 to 100 uM after 24 hrs by MTT assay
[3] = target: T1, Low-density lipoprotein receptor-related protein 6; assay: Binding affinity to LRP6 in human SH-SY5Y cells assessed as DKK1/LRP6 interaction-mediated increase in beta-catenin level at 10 uM incubated for 1 hr using compound pre-treated DKK1 conditioned media by Western blot analysis

T1 sequence (O75581 whole entry): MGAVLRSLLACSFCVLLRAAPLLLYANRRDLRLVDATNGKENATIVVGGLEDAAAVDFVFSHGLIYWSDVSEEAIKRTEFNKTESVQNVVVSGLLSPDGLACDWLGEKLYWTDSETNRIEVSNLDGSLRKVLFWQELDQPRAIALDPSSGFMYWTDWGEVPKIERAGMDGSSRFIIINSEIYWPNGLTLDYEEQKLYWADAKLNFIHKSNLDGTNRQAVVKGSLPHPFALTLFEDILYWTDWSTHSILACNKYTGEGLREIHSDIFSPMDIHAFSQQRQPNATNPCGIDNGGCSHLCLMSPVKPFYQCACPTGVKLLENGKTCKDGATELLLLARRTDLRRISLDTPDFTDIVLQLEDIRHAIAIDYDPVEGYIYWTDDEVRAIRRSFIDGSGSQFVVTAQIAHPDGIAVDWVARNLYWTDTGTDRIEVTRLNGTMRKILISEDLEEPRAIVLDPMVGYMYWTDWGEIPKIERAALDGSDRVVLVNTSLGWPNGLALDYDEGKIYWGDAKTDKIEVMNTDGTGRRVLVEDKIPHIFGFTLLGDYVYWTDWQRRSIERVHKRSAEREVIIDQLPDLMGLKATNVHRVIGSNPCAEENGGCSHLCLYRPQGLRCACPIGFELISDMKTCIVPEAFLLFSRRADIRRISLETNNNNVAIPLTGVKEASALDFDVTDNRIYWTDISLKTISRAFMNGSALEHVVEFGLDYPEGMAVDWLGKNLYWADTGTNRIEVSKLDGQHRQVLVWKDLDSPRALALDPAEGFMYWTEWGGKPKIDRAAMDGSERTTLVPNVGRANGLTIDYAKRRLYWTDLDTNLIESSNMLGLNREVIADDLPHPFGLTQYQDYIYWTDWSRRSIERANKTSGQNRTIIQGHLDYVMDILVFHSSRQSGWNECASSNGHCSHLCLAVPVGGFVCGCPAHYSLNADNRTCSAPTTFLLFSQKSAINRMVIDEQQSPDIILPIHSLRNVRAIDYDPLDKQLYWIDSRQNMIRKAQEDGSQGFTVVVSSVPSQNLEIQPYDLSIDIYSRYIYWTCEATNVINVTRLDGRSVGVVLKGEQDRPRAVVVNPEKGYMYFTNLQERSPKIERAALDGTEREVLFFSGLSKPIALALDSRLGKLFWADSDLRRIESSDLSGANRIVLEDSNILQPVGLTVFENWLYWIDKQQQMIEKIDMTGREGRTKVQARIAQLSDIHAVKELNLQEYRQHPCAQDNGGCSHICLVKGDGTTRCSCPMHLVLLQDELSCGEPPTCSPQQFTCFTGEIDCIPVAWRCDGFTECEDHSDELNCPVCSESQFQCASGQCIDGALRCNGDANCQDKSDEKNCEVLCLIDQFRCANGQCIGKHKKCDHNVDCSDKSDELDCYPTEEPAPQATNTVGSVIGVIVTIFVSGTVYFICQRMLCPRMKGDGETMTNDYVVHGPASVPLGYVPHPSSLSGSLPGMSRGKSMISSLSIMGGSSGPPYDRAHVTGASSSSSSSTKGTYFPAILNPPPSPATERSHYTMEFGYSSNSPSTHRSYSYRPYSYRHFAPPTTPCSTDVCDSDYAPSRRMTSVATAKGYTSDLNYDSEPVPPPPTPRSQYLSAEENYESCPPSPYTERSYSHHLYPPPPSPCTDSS

| Structure (SMILES) | inhibition [1] | IC50 [2] [µM] | inhibition [3] | Activity (SH-SY5Y) |
| --- | --- | --- | --- | --- |
| COC(=O)c1c2nc3ccc(N(C)C)cc3oc-2c(O)c(=O)c1N1CCCCC1 | Active | 5.5 | Active | Non-toxic |
| COC(=O)c1c2nc3ccc(N(C)C)cc3oc-2c(O)c(=O)c1N | Active | 5.23 | Active | Non-toxic |
| COC(=O)c1c2nc3ccc(N(C)C)cc3oc-2c(O)c(=O)c1Nc1ccc(OC)cc1 | – | 4.71 | Active | Non-toxic |
| COC(=O)c1c2nc3ccc(N(C)C)cc3oc-2c(O)c(=O)c1Nc1ccccc1 | – | 6.16 | Active | Non-toxic |
| COC(=O)c1c2nc3ccc(N(C)C)cc3oc-2c(O)c(=O)c1Nc1ccc(Cl)c(Cl)c1 | Active | 4.87 | Active | Non-toxic |
| COC(=O)c1c2nc3ccc(N(C)C)cc3oc-2c(O)c(=O)c1NC1CCCC1 | – | 4.61 | Active | Non-toxic |

Stronger by IC50 [2], values ahead:

| inhibition [1] | IC50 [2] [µM] | inhibition [3] | Structure (SMILES) | Activity (SH-SY5Y) |
| --- | --- | --- | --- | --- |
| – | 4.06 | Active | COC(=O)c1c2nc3ccc(N(C)C)cc3oc-2c(O)c(=O)c1NC1CCCCC1 | Non-toxic |
| – | 4.33 | Active | COC(=O)c1c2nc3ccc(N(C)C)cc3oc-2c(O)c(=O)c1NCc1ccc(OC)cc1 | Non-toxic |
| – | 3.38 | Active | CCCCOC(=O)c1c2nc3ccc(N(C)C)cc3oc-2c(O)c(=O)c1NCc1ccc(OC)cc1 | Non-toxic |
| – | 3.77 | Active | COC(=O)c1c2nc3ccc(N(C)C)cc3oc-2c(O)c(=O)c1Nc1ccc(C)cc1 | Non-toxic |
| – | 3.74 | Active | COC(=O)c1c2nc3ccc(N(C)C)cc3oc-2c(O)c(=O)c1N1CCOCC1 | Non-toxic |
